Experimental data reported in patent publication EP0639573A1, “Benzocondensed five membered heterocycles, process of their preparation, their use as drug, as diagnostic means and pharmaceuticals containing it” (HOECHST AKTIENGESELLSCHAFT, priority 1993, dated 1995).
pIC50: −log10 of the molar value. Where a name gives a salt, the structure may show the parent alone.

Test system: Rattenherzen
Assay: not given
Conditions: isolated rat hearts; Eur. Heart J. 9 (suppl. 1): 167 (1988); cited from earlier work

Row | SMILES | künstlich ausgelöstes Kammerflimmern
1 | NC(N)=NC(=O)c1nc(Cl)c(N)nc1N [Amilorid] | völlig unterdrückt
2 | CCN(c1nc(N)c(C(=O)N=C(N)N)nc1Cl)C(C)C [Ethylisopropylamilorid] | Noch potenter als Amilorid

Target: T1, Na⁺/H⁺-Exchanger (Oryctolagus cuniculus, UniProt P23791)
T1 construct: den Na⁺-Influx in die Erythrocyten via Na⁺/H⁺-Austausch flammenphotometrisch bestimmen zu können; from tissue; host or cells: Erythrocytes in whole blood from ear arteries of cholesterol-fed White New Zealand rabbits (Ivanovas)
T1 sequence (P23791 whole entry): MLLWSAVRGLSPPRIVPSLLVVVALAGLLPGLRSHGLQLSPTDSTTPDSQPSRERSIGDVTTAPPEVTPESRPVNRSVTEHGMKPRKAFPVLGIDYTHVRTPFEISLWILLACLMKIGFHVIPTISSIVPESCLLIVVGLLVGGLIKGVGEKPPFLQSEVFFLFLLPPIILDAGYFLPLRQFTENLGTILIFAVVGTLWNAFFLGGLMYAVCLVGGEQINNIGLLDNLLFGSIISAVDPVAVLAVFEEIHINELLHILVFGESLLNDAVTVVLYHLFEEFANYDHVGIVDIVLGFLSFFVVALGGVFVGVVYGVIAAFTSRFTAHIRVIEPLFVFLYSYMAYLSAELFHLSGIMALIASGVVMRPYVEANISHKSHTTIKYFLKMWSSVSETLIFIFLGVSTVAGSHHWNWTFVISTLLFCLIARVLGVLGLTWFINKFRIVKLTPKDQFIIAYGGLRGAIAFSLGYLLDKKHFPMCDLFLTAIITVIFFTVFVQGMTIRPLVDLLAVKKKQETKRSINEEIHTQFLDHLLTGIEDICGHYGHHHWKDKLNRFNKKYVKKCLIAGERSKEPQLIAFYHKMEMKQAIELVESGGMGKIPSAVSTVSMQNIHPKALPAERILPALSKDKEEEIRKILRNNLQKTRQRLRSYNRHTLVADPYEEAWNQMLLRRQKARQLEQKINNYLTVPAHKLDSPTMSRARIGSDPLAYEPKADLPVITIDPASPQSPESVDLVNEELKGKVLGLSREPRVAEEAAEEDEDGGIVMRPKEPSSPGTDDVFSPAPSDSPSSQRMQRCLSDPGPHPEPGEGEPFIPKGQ
Assay: Inhibition of the Na+/H+ exchanger of rabbit erythrocytes (amiloride-sensitive Na+ influx, flame photometry)
Type: cell-based, Kaninchen
Conditions: Kaninchenerythrocyten; hyperosmolar salt-sucrose medium, pH 7,4, 37°C; rabbits on 2% cholesterol diet; read-out: IC₅₀
Description: Inhibition des Na⁺/H⁺-Exchangers von Kaninchenerythrocyten
Weiße Neuseeland-Kaninchen (Ivanovas) erhielten eine Standard-Diät mit 2% Cholesterin für sechs Wochen, um den Na⁺/H⁺-Austausch zu aktivieren und so den Na⁺-Influx in die Erythrocyten via Na⁺/H⁺-Austausch flammenphotometrisch bestimmen zu können. Das Blut wurde den Ohrarterien entnommen und durch 25 IE Kalium-Heparin ungerinnbar gemacht. Ein Teil jeder Probe wurde zur Doppelbestimmung des Hämatokrits durch Zentrifugieren benutzt. Aliquots von jeweils 100 µl dienten zur Messung des Na⁺-Ausgangsgehalts der Erythrocyten.
Um den Amilorid-sensitiven Natrium-Influx zu bestimmen, wurden 100 µl jeder Blutprobe in jeweils 5 ml eines hyperosmolaren Salz-Sucrose-Mediums (mmol/l: 140 NaCl, 3 KCl, 150 Sucrose, 0,1 Ouabain, 20 Tris-hydroxymethylaminomethan) bei pH 7,4 und 37°C inkubiert. Die Erythrocyten wurden danach dreimal mit eiskalter MgCl₂-Ouabain-Lösung (mmol/l: 112 MgCl₂, 0,1 Ouabain) gewaschen und in 2,0 ml destilliertem Wasser hämolysiert. Der intrazelluläre Natriumgehalt wurde flammenphotometrisch bestimmt.
Der Na⁺ -Nettoinflux wurde aus der Differenz zwischen Natrium-Ausgangswerten und dem Natriumgehalt der Erythrocyten nach Inkubation errechnet. Der Amilorid-hemmbare Natrium-Influx ergab sich aus der Differenz des Natriumgehalts der Erythrocyten nach Inkubation mit und ohne Amilorid 3 x 10⁻⁴ mol/l. Auf diese Weise wurde auch bei den erfindungsgemäßen Verbindungen verfahren.

Row | SMILES | pIC50
3 | CCn1c(C(=O)N=C(N)N)cc2cc(Cl)ccc21 [Beispiel 52, 5-Chlor-1-ethyl-2-indolylcarbonyl-guanidin-hydrochlorid] | 7.40
4 | CCCCn1c(C(=O)N=C(N)N)cc2cc(Cl)ccc21 [Beispiel 54, 5-Chlor-1-butyl-2-indolylcarbonyl-guanidin-hydrochlorid] | 6.70
5 | NC(N)=NC(=O)c1cc2cc(Cl)ccc2n1Cc1ccncc1 [Beispiel 61, 5-Chlor-1-(4-picolyl)-2-indolylcarbonyl-guanidin-dihydrochlorid] | 6.52

Further lines, results first:

Row | pIC50 | SMILES
6 | 7.30 | CCCn1c(C(=O)N=C(N)N)cc2cc(Cl)ccc21 [Beispiel 53, 5-Chlor-1-propyl-2-indolylcarbonyl-guanidin-hydrochlorid]
7 | 7.30 | Cn1c(C(=O)N=C(N)N)c(Cl)c2cc(Cl)ccc21 [Beispiel 69, 3,5-Dichlor-1-methyl-2-indolylcarbonyl-guanidin-hydrochlorid]
8 | 7.52 | Cn1c(C(=O)N=C(N)N)c(Cl)c2cc(F)ccc21 [Beispiel 86, 3-Chlor-5-fluor-1-methylindolyl-2-carbonsäureguanidid Hydrochlorid]
9 | 6.70 | CN1c2ccccc2CC1C(=O)N=C(N)N (stereo not shown) [Beispiel 104, 1-Methylindolin-2-carbonsäure-guanidid-hydrochlorid]
10 | 7.30 | CN1c2ccc(F)cc2CC1C(=O)N=C(N)N (stereo not shown) [Beispiel 106, 5-Fluor-1-methylindolin-2-carbonsäureguanidid Hydrochlorid]
